The target of the experiment is T1, 5-HT1D (Bos taurus, UniProt F1MGM3).
T1 construct: from tissue
Description: 5-HT1D activity, method of R. E. Heuring and S. J. Peroutka. The experiment is classed as binding. The protocol:
The active compounds of the invention are evaluated as anti-migraine agents by testing the extent to which they mimic sumatriptan in contracting the dog isolated saphenous vein strip (P. P. A. Humphrey et al., Br. J. Pharmacol., 94, 1128 (1988)). This effect can be blocked by methiothepin, a known serotonin antagonist. Sumatriptan is known to be useful in the treatment of migraine and produces a selective increase in carotid vascular resistance in the anaesthetized dog. […] The active compounds are also evaluated using the method of R. E. Heuring and S. J. Peroutka (J. Neuroscience, 7, 894 (1987)).

Setting [1] is: method of Heuring and Peroutka, J. Neuroscience, 7, 894 (1987), read-out: IC50 (5-HT1D activity).

Like-named read-outs stand apart in the source and are kept apart here.

T1 sequence (F1MGM3 1-403): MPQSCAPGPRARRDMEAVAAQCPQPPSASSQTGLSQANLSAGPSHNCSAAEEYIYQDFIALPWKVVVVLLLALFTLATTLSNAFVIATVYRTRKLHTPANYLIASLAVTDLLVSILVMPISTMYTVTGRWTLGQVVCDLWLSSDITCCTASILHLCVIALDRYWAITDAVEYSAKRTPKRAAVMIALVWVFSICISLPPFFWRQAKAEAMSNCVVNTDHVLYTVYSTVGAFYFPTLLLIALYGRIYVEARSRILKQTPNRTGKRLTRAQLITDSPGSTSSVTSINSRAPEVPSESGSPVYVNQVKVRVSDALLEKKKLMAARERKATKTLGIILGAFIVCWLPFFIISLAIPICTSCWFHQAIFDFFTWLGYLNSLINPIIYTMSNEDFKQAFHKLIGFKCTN

In general, IC50 refers to the concentration needed to halve the response being measured. With `CN(C)CCc1c[nH]c2ccc(-c3nccs3)cc12` [Example 7, 2-[3-(N,N-Dimethylaminoethyl)indol-5-yl]thiazole], the IC50 under setting [1] was ≥ 1000 nM.

With `CN(C)CCc1c[nH]c2ccc(-c3nc(CNc4ccccc4)cs3)cc12` [Example 13, 2-[3-(N,N-Dimethylaminoethyl)-indol-5-yl]-4-(phenylaminomethyl)thiazole], under setting [1], the IC50 is ≥ 1000 nM. On the same count and under the same terms, as for `CN(C)CCc1c[nH]c2ccc(-c3nc(COc4ccccc4)cs3)cc12` [Example 15A, 2-[3-(N,N-Dimethylaminoethyl)indol-5-yl]-4-(phenoxymethyl)thiazole], the figure is ≥ 1000 nM; as for `CN(C)CCc1c[nH]c2ccc(-c3nc(CSc4ccccc4)cs3)cc12` [Example 15B, 2-[3-(N,N-Dimethylaminoethyl)indol-5-yl)-4-(thiophenoxymethyl)thiazole], ≥ 1000 nM. For the compound `Cc1nc(-c2ccc3[nH]cc(C4=CCNCC4)c3c2)cs1` [Example 20, 4-[3-(1,2,5,6-Tetrahydropyrid-4-yl)indol-5-yl]-2-methylthiazole], the half-maximal inhibitory concentration (IC50) is ≥ 1000 nM. Same read-out and setting: the figure for `Cc1csc(Cc2ccc3[nH]cc(C4=CCNCC4)c3c2)n1` [Example 26, 2-[3-(1,2,5,6-Tetrahydropyrid-4-yl)indol-5-ylmethyl]-4-methylthiazole] is ≥ 1000 nM. As to `CN1CCC(c2c[nH]c3ccc(-c4nc(CNc5ccccc5)cs4)cc23)CC1` [Example 28, 2-[3-(1-Methylpiperidin-4-yl)indol-5-yl]-4-(phenylaminomethyl)thiazole], the IC50 under setting [1] is ≥ 1000 nM.

The record behind these values is patent US5409941A, “5-heteroyl indole derivatives” (Pfizer Inc., priority 1993, dated 1995).
